Test: xn = mol fraction of the nth substance listed
Conditions: Liquid, Vibrating tube method

CCCCCCCC [octane] + CCCCCC
Conditions	mass density [kg/m3]
342.99 K, 19000 kPa, x2 = 0.1654	676.86
342.99 K, 20000 kPa, x2 = 0.1654	677.79
342.99 K, 21000 kPa, x2 = 0.1654	678.7
342.99 K, 22000 kPa, x2 = 0.1654	679.59
342.99 K, 23000 kPa, x2 = 0.1654	680.47
342.99 K, 24000 kPa, x2 = 0.1654	681.32
342.99 K, 25000 kPa, x2 = 0.1654	682.14
343 K, 1000 kPa, x2 = 0.7995	627.89
343 K, 2000 kPa, x2 = 0.7995	629.27
343 K, 3000 kPa, x2 = 0.7995	630.64
343 K, 4000 kPa, x2 = 0.7995	632.01
343 K, 5000 kPa, x2 = 0.7995	633.35
343 K, 6000 kPa, x2 = 0.7995	634.69
343 K, 7000 kPa, x2 = 0.7995	636.02
343 K, 8000 kPa, x2 = 0.7995	637.32
343 K, 9000 kPa, x2 = 0.7995	638.61
343 K, 10000 kPa, x2 = 0.7995	639.87
343 K, 11000 kPa, x2 = 0.7995	641.1
343 K, 12000 kPa, x2 = 0.7995	642.32
343 K, 13000 kPa, x2 = 0.7995	643.52
343 K, 14000 kPa, x2 = 0.7995	644.7
343 K, 15000 kPa, x2 = 0.7995	645.87
343 K, 16000 kPa, x2 = 0.7995	647.01
343 K, 17000 kPa, x2 = 0.7995	648.12
343 K, 18000 kPa, x2 = 0.7995	649.21
343 K, 19000 kPa, x2 = 0.7995	650.28
343 K, 20000 kPa, x2 = 0.7995	651.33
343 K, 21000 kPa, x2 = 0.7995	652.33
343 K, 22000 kPa, x2 = 0.7995	653.33
343 K, 23000 kPa, x2 = 0.7995	654.3
343 K, 24000 kPa, x2 = 0.7995	655.24
343 K, 25000 kPa, x2 = 0.7995	656.16
352.79 K, 1000 kPa, x2 = 0.5749	631.4
352.79 K, 2000 kPa, x2 = 0.5749	632.83
352.79 K, 3000 kPa, x2 = 0.5749	634.2
352.79 K, 4000 kPa, x2 = 0.5749	635.57
352.79 K, 5000 kPa, x2 = 0.5749	636.95
352.79 K, 6000 kPa, x2 = 0.5749	638.3
352.79 K, 7000 kPa, x2 = 0.5749	639.63
352.79 K, 8000 kPa, x2 = 0.5749	640.97
352.79 K, 9000 kPa, x2 = 0.5749	642.26
352.79 K, 10000 kPa, x2 = 0.5749	643.53
352.79 K, 11000 kPa, x2 = 0.5749	644.82
352.79 K, 12000 kPa, x2 = 0.5749	646.04
352.79 K, 13000 kPa, x2 = 0.5749	647.27
352.79 K, 14000 kPa, x2 = 0.5749	648.46
352.79 K, 15000 kPa, x2 = 0.5749	649.66
352.79 K, 16000 kPa, x2 = 0.5749	650.79
352.79 K, 17000 kPa, x2 = 0.5749	651.95
352.79 K, 18000 kPa, x2 = 0.5749	653.02
352.79 K, 19000 kPa, x2 = 0.5749	654.11
352.79 K, 20000 kPa, x2 = 0.5749	655.18
352.79 K, 21000 kPa, x2 = 0.5749	656.24
352.79 K, 22000 kPa, x2 = 0.5749	657.22
352.79 K, 23000 kPa, x2 = 0.5749	658.23
352.79 K, 24000 kPa, x2 = 0.5749	659.22
352.79 K, 25000 kPa, x2 = 0.5749	660.15
352.85 K, 1000 kPa, x2 = 0.2199	646.75
352.85 K, 2000 kPa, x2 = 0.2199	648.04
352.85 K, 3000 kPa, x2 = 0.2199	649.32
352.85 K, 4000 kPa, x2 = 0.2199	650.6
352.85 K, 5000 kPa, x2 = 0.2199	651.87
352.85 K, 6000 kPa, x2 = 0.2199	653.11
352.85 K, 7000 kPa, x2 = 0.2199	654.35
352.85 K, 8000 kPa, x2 = 0.2199	655.57
352.85 K, 9000 kPa, x2 = 0.2199	656.79
352.85 K, 10000 kPa, x2 = 0.2199	657.97
352.85 K, 11000 kPa, x2 = 0.2199	659.16
352.85 K, 12000 kPa, x2 = 0.2199	660.32
352.85 K, 13000 kPa, x2 = 0.2199	661.45
352.85 K, 14000 kPa, x2 = 0.2199	662.57
352.85 K, 15000 kPa, x2 = 0.2199	663.67
352.85 K, 16000 kPa, x2 = 0.2199	664.74
352.85 K, 17000 kPa, x2 = 0.2199	665.8
352.85 K, 18000 kPa, x2 = 0.2199	666.83
352.85 K, 19000 kPa, x2 = 0.2199	667.85
352.85 K, 20000 kPa, x2 = 0.2199	668.84
352.85 K, 21000 kPa, x2 = 0.2199	669.8
352.85 K, 22000 kPa, x2 = 0.2199	670.75
352.85 K, 23000 kPa, x2 = 0.2199	671.68
352.85 K, 24000 kPa, x2 = 0.2199	672.59
352.85 K, 25000 kPa, x2 = 0.2199	673.48
352.91 K, 1000 kPa, x2 = 0.1654	648.87
352.91 K, 1000 kPa, x2 = 0.9308	609.77
352.91 K, 2000 kPa, x2 = 0.1654	650.15
352.91 K, 2000 kPa, x2 = 0.9308	611.36
352.91 K, 3000 kPa, x2 = 0.1654	651.43
352.91 K, 3000 kPa, x2 = 0.9308	612.95
352.91 K, 4000 kPa, x2 = 0.1654	652.68
352.91 K, 4000 kPa, x2 = 0.9308	614.51
352.91 K, 5000 kPa, x2 = 0.1654	653.95
352.91 K, 5000 kPa, x2 = 0.9308	616.06
352.91 K, 6000 kPa, x2 = 0.1654	655.19
352.91 K, 6000 kPa, x2 = 0.9308	617.57

Reference: the NIST ThermoML archive (doi:10.1021/je200721d)
